From ChEMBL document CHEMBL5728127, “Diarylalkanes as potent inhibitors of binuclear enzymes” (2020)

Target: T1, Polyphenol oxidase 1 (Agaricus bisporus, UniProt Q00024)
T1 sequence (Q00024 whole entry): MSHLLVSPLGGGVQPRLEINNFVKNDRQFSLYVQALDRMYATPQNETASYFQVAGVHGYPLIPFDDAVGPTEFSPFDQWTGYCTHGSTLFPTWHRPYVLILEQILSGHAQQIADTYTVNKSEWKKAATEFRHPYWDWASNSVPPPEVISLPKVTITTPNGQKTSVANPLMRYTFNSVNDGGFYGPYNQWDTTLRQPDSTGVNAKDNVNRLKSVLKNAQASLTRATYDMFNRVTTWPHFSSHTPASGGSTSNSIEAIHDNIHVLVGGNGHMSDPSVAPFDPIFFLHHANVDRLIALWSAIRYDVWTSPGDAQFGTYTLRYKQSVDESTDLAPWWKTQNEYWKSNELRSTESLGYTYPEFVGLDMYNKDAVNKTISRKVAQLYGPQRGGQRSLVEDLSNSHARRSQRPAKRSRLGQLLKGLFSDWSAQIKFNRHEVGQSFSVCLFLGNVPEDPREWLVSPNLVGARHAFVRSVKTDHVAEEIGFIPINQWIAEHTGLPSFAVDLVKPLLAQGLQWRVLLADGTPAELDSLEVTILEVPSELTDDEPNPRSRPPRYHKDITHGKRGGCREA
Test: Using this method, the conversion of L-Dopa, a substrate of tyrosinase, into dopachrome is followed by monitoring absorption at 450 nm. Tyrosinase was prepared in 50 mM potassium phosphate buffer, pH 6.8 (assay buffer) at 2000 U/ml and stored at −20° C. in 1 ml aliquots prior to use. For use in assays, stock enzyme solutions were thawed and diluted to 200 U/ml with assay buffer. A 2 mM working solution of substrate, L-DOPA, was prepared in assay buffer for each assay. Samples were dissolved in 10% DMSO (0.5 ml) and diluted to 5 ml with assay buffer. The reaction mixture consisted of 0.050 ml 2 mM L-DOPA, 0.050 ml 200 U/ml mushroom tyrosinase and 0.050 ml inhibitor. Reaction volume was adjusted to 200 μl with assay buffer. […] Average velocity was determined from linear enzyme rate as measured by change in absorbance (ΔA450) at 450 nm per minute.

Compound | IC50
COc1cc(O)c(C(O)CCc2ccc(O)c(OC)c2)c(OC)c1 (stereo unspecified) | 375 µM
Oc1ccc(C(O)CCc2ccccc2O)c(O)c1 (stereo unspecified) | 0.7 µM
Oc1ccc(CCC(O)c2ccc(O)cc2)cc1 (stereo unspecified) | 305 µM
COc1ccc(O)c(CCCc2ccc(O)cc2OC)c1 | 24 µM
Nc1ccc(CCC(O)c2c(O)cc(O)cc2O)cc1 (stereo unspecified) | 8 µM

The remaining lines, values ahead:

IC50 | Compound
0.24 µM | COc1ccc(CCCc2ccc(O)cc2O)c(OC)c1C
1200 µM | COc1ccc(CCC(O)c2c(O)cc(O)cc2O)cc1O (stereo unspecified)
77 µM | COc1ccc(CC(O)c2ccc(O)cc2O)cc1 (stereo unspecified)
1000 µM | Oc1ccc(C(O)Cc2ccc(Cl)cc2Cl)c(O)c1 (stereo unspecified)
1000 µM | COc1ccc(CCC(O)c2cc(OC)ccc2O)c(OC)c1 (stereo unspecified)
700 µM | CC(Cc1ccc(O)c(O)c1)C(C)Cc1ccc(O)c(O)c1 (stereo unspecified) [NORDIHYDROGUAIARETIC ACID]
